Experimental data: patent US5876948A (priority 1991, dated 1999)
Peptide text beside a SMILES is read from it.

Key:
[1] = tested on: hippocampal neurons; format: cell-based, rat
[2] = tested on: hippocampal neurons; format: cell-based, rat; remark: listed apart in the source
[3] = tested on: hippocampal neurons; format: cell-based, rat; remark: listed apart in the source
[4] = tested on: hippocampal neurons; format: cell-based, rat; remark: listed apart in the source
[5] = in vivo; cited from earlier work
[6] = tested on: primary hippocampal neurons; assay: Block of β1-40 neuronal toxicity by Substance P and analogs (therapeutic efficacy); format: cell-based, rat

Row | Molecule | reversal of late toxic response to β1-40 [1] | % Toxic Response [2] | neurotoxic activity / late neuronal survival (in words) [2] | reversal of early trophic response to β1-40 [3] | % Trophic Response [4] | neurotrophic activity / early neuronal survival (in words) [4] | Therapeutic Efficacy (%): ability to block neuronal toxicity of β1-40 [6] | further results
1 | CC[C@H](C)[C@H](NC(=O)[C@H](Cc1ccccc1)NC(=O)[C@H](C)NC(=O)[C@H](CC(=O)O)NC(=O)[C@H](CCCCN)NC(=O)[C@H](CO)NC(=O)[C@@H]1CCCN1C(=O)[C@@H]1CCC(=O)N1)C(=O)NCC(=O)N[C@@H](CC(C)C)C(=O)N[C@@H](CCSC)C(N)=O [Eledoisin] (HELM PEPTIDE1{[Glp].P.S.K.D.A.F.I.G.L.M.[am]}$$$$V2.0) | did not show significant effects | 0 ± 6 | no effect on early or late neuronal survival | did not show significant effects | 0 ± 11 | no effect on early or late neuronal survival | – | –
2 | CSCC[C@H](NC(=O)[C@H](CC(C)C)NC(=O)CNC(=O)[C@H](Cc1ccc(O)cc1)NC(=O)[C@H](Cc1ccccc1)NC(=O)[C@H](CCCCN)NC(=O)[C@H](CC(N)=O)NC(=O)[C@@H]1CCCN1C(=O)[C@H](CC(=O)O)NC(=O)[C@H](C)NC(=O)[C@@H]1CCC(=O)N1)C(N)=O [Physalaemin] (HELM PEPTIDE1{[Glp].A.D.P.N.K.F.Y.G.L.M.[am]}$$$$V2.0) | almost completely reversed | 0 ± 7% | no effect on early or late neuronal survival | almost completely reversed | 0 ± 4% | no effect on early or late neuronal survival | – | –
3 | CSCC[C@H](NC(=O)[C@H](CC(C)C)NC(=O)CNC(=O)[C@H](Cc1ccccc1)NC(=O)[C@H](Cc1ccccc1)NC(=O)[C@H](CCC(N)=O)NC(=O)[C@H](CCC(N)=O)NC(=O)[C@@H]1CCCN1C(=O)[C@H](CCCCN)NC(=O)[C@@H]1CCCN1C(=O)[C@@H](N)CCCN=C(N)N)C(N)=O [Substance P] | – | – | – | – | – | – | – | crossing of the blood-brain barrier [5]: known to cross the blood-brain barrier
4 | CSCC[C@H](NC(=O)[C@H](CC(C)C)NC(=O)CNC(=O)[C@H](Cc1ccccc1)N(C)C(=O)[C@H](Cc1ccccc1)NC(=O)[C@H](CC(=O)O)NC(=O)CCC(=O)O)C(N)=O [[Succinyl-Asp^6, Me-Phe^8]-Sub P (6-11)] (HELM PEPTIDE1{[O=C(O)CCC(=O)[*:2]].D.F.[meF].G.L.M.[am]}$$$$V2.0) | – | – | – | – | – | – | 47% | –
5 | CSCC[C@H](NC(=O)[C@H](CC(C)C)NC(=O)CNC(=O)[C@@H](NC(=O)[C@H](Cc1ccccc1)NC(=O)[C@H](CCC(N)=O)NC(=O)[C@H](CC(=O)O)NC(=O)[C@H](CO)NC(=O)[C@H](CCCCN)NC(=O)[C@@H]1CCCN1C(=O)[C@@H](NC(=O)[C@@H](N)CC(=O)O)C(C)C)C(C)C)C(N)=O [kassinin] (H-DVPKSDQFVGLM-NH2) | did not show significant effects | – | – | did not show significant effects | – | – | – | –
6 | CC(C)C[C@H](NC(=O)[C@H](CC(C)C)NC(=O)[C@@H](Cc1c[nH]c2ccccc12)NC(=O)[C@H](Cc1ccccc1)NC(=O)[C@@H](Cc1c[nH]c2ccccc12)NC(=O)[C@H](CCC(N)=O)NC(=O)[C@H](CCC(N)=O)NC(=O)[C@@H]1CCCN1C(=O)[C@H](CCCCN)NC(=O)[C@@H]1CCCN1C(=O)[C@H](N)CCCNC(=N)N)C(N)=O [spantide, [D-Arg^1, D-Trp^7,9, Leu^11]-substance P] (HELM PEPTIDE1{[dR].P.K.P.Q.Q.[dW].F.[dW].L.L.[am]}$$$$V2.0) | – | 118 ± 10% | significant early neurotrophic and late neurotoxic effects | – | 120 ± 8% | significant early neurotrophic and late neurotoxic effects | – | –
7 | Sub P, Free Acid | – | – | – | – | – | – | 53% | –
8 | Sub P, Methyl Ester | – | – | – | – | – | – | 71% | –
